# Where “and” joins values, the source holds several entries; their conditions need not be identical. Identical values can stand only once. Inconclusive results are not listed.
# Test system: nude mice, LX-1 lung xenograft intrarenal, tumor weight T/C
# Test: NCI In Vivo Anticancer Drug Screen. Data for tumor model Human Lung LX-1 Xenograft (intrarenal inoculation) in NU/NU Swiss (nude) mice
# Conditions: endpoint: mean tumor weight change, higher = larger tumour
# How it was run: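 Antitumor effect is expressed as a ratio: the mean tumor measurement of the drug-treated group relative to that of the vehicle-dosed control group.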
# [1] = dose: 2400.0 mg/kg/injection, schedule: Q04DX003 (sc), vehicle: saline with Tween-80
# [2] = dose: 25.0 mg/kg/injection, schedule: Q04DX003 (sc), vehicle: saline + alcohol
# [3] = dose: 50.0 mg/kg/injection, schedule: Q04DX003 (sc), vehicle: saline + alcohol
# [4] = dose: 300.0 mg/kg/injection, schedule: Q04DX003 (sc), vehicle: saline with Tween-80
# [5] = dose: 600.0 mg/kg/injection, schedule: Q04DX003 (sc), vehicle: saline with Tween-80
# [6] = dose: 1200.0 mg/kg/injection, schedule: Q04DX003 (sc), vehicle: saline with Tween-80
# [7] = dose: 200.0 mg/kg/injection, schedule: Q01DX010 (sc), vehicle: Klucel (hydroxypropylcellulose) (HPC)
# [8] = dose: 400.0 mg/kg/injection, schedule: Q01DX010 (sc), vehicle: Klucel (hydroxypropylcellulose) (HPC)
# [9] = dose: 100.0 mg/kg/injection, schedule: Q04DX003 (sc), vehicle: saline with Tween-80
# [10] = dose: 200.0 mg/kg/injection, schedule: Q04DX003 (sc), vehicle: saline with Tween-80
# [11] = dose: 400.0 mg/kg/injection, schedule: Q04DX003 (sc), vehicle: saline with Tween-80
compound,measurement,setting,value
CCSC(=O)N1c2ccc(OC)cc2C=CC1C#N (centres undefined),T/C,[1],32 % of control (2×) and 40 % of control
same,T/C,"dose: 4800.0 mg/kg/injection, schedule: Q04DX003 (sc), vehicle: saline with Tween-80",16 % of control and 17 % of control and 23 % of control
COC1CC(C)C(OC)C2=CC(=O)C=C(NC(=O)/C(C)=C/C=C\C(C)C(OC(N)=O)/C(C)=C\C(C)C1OC)C2=O (centres undefined),T/C,"dose: 12.5 mg/kg/injection, schedule: Q04DX003 (sc), vehicle: saline + alcohol",35 % of control
same,T/C,[2],87 % of control
same,T/C,[3],73 % of control
CCCCOC(=O)/C=C(\Br)C(=O)OCCCC,T/C,"dose: 100.0 mg/kg/injection, schedule: Q01DX010 (sc), vehicle: saline with Tween-80",166 % of control
same,T/C,"dose: 200.0 mg/kg/injection, schedule: Q01DX010 (sc), vehicle: saline with Tween-80",281 % of control
same,T/C,"dose: 400.0 mg/kg/injection, schedule: Q01DX010 (sc), vehicle: saline with Tween-80",251 % of control
Cn1ccc(=Nc2ccc(NC(=O)c3ccc(N=c4ccn(C)c5ccc([N+](=O)[O-])cc45)cc3[N+](=O)[O-])cc2)cc1,T/C,[4],93 % of control
same,T/C,[5],75 % of control
same,T/C,[6],86 % of control
same,T/C,[1],83 % of control
N=c1ccn2c(n1)OC1C(O)C(CO)OC12 (centres undefined),T/C,"dose: 37.5 mg/kg/injection, schedule: Q04DX003 (sc), vehicle: saline",91 % of control
same,T/C,"dose: 75.0 mg/kg/injection, schedule: Q04DX003 (sc), vehicle: saline",95 % of control
same,T/C,"dose: 150.0 mg/kg/injection, schedule: Q04DX003 (sc), vehicle: saline",121 % of control
same,T/C,"dose: 300.0 mg/kg/injection, schedule: Q04DX003 (sc), vehicle: saline",77 % of control
same,T/C,"dose: 300.0 mg/kg/injection, schedule: Q04DX003 (sc), vehicle: suspension in saline",176 % of control
same,T/C,"dose: 600.0 mg/kg/injection, schedule: Q04DX003 (sc), vehicle: suspension in saline",231 % of control
same,T/C,"dose: 800.0 mg/kg/injection, schedule: Q04DX003 (sc), vehicle: saline",24 % of control and 48 % of control
same,T/C,"dose: 1200.0 mg/kg/injection, schedule: Q04DX003 (sc), vehicle: suspension in saline",41 % of control
same,T/C,"dose: 1600.0 mg/kg/injection, schedule: Q04DX003 (sc), vehicle: saline",18 % of control and 31 % of control
same,T/C,"dose: 2400.0 mg/kg/injection, schedule: Q04DX003 (sc), vehicle: suspension in saline",36 % of control
same,T/C,"dose: 3200.0 mg/kg/injection, schedule: Q04DX003 (sc), vehicle: saline",6 % of control and 18 % of control
CCN(Cc1ccc(Cl)c(Cl)c1)c1ccc2nc(N)nc(N)c2c1C,T/C,"dose: 37.5 mg/kg/injection, schedule: Q04DX003 (sc), vehicle: water",62 % of control
S=c1nc[nH]c2nc[nH]c12,T/C,"dose: 6.25 mg/kg/injection, schedule: Q01DX010 (sc), vehicle: Klucel (hydroxypropylcellulose) (HPC)",120 % of control
same,T/C,"dose: 50.0 mg/kg/injection, schedule: Q01DX010 (sc), vehicle: Klucel (hydroxypropylcellulose) (HPC)",51 % of control and 55 % of control
COc1c(CNC(=O)CCl)cc2[nH]c(C)cc2c1CNC(=O)CCl,T/C,"dose: 100.0 mg/kg/injection, schedule: Q01DX010 (sc), vehicle: Klucel (hydroxypropylcellulose) (HPC)",76 % of control
same,T/C,[7],52 % of control
same,T/C,"dose: 300.0 mg/kg/injection, schedule: Q04DX003 (sc), vehicle: Klucel (hydroxypropylcellulose) (HPC)",91 % of control
same,T/C,[8],37 % of control
same,T/C,"dose: 600.0 mg/kg/injection, schedule: Q04DX003 (sc), vehicle: Klucel (hydroxypropylcellulose) (HPC)",90 % of control
same,T/C,"dose: 1200.0 mg/kg/injection, schedule: Q04DX003 (sc), vehicle: Klucel (hydroxypropylcellulose) (HPC)",68 % of control
COc1cccc2c1C(=N)c1c(O)c3c(c(O)c1C2=O)C[C@@](O)(C(C)=O)C[C@@H]3OC1CC(N)C(O)C(C)O1 (some centres undefined),T/C,"dose: 24.0 mg/kg/injection, schedule: Q04DX003 (sc), vehicle: water",46 % of control
same,T/C,"dose: 48.0 mg/kg/injection, schedule: Q04DX003 (sc), vehicle: water",10 % of control
same,T/C,"dose: 96.0 mg/kg/injection, schedule: Q04DX003 (sc), vehicle: water",23 % of control
N=C(N)SCc1c2ccccc2c(CSC(=N)N)c2ccccc12,T/C,"dose: 100.0 mg/kg/injection, schedule: Q04DX003 (sc), vehicle: suspension in saline",104 % of control
same,T/C,"dose: 400.0 mg/kg/injection, schedule: Q04DX003 (sc), vehicle: suspension in saline",93 % of control
same,T/C,"dose: 800.0 mg/kg/injection, schedule: Q04DX003 (sc), vehicle: suspension in saline",96 % of control
OC(CBr)C(O)C(O)C(O)CBr (centres undefined),T/C,"dose: 15.0 mg/kg/injection, schedule: Q01DX010 (sc), vehicle: Klucel (hydroxypropylcellulose) (HPC)",112 % of control
same,T/C,"dose: 60.0 mg/kg/injection, schedule: Q01DX010 (sc), vehicle: Klucel (hydroxypropylcellulose) (HPC)",57 % of control
same,T/C,[7],89 % of control
same,T/C,[8],96 % of control
same,T/C,"dose: 800.0 mg/kg/injection, schedule: Q01DX010 (sc), vehicle: Klucel (hydroxypropylcellulose) (HPC)",115 % of control
CCc1ncnc2cc(OCC3CO3)c(OC)cc12 (centres undefined),T/C,"dose: 25.0 mg/kg/injection, schedule: Q04DX003 (sc), vehicle: suspension in saline",53 % of control
same,T/C,"dose: 50.0 mg/kg/injection, schedule: Q04DX003 (sc), vehicle: suspension in saline",64 % of control
same,T/C,"dose: 200.0 mg/kg/injection, schedule: Q04DX003 (sc), vehicle: suspension in saline",24 % of control
C1OCN2CSCC12 (centres undefined),T/C,"dose: 50.0 mg/kg/injection, schedule: Q04DX003 (sc), vehicle: saline with Tween-80",76 % of control
same,T/C,[9],103 % of control
same,T/C,[10],71 % of control
same,T/C,[11],63 % of control
Cc1ccc2c(c1)N=C(Nc1ccccc1)N=S2(C)=O (centres undefined),T/C,[9],101 % of control
same,T/C,[10],90 % of control
same,T/C,[11],97 % of control
CSc1cc(C)[o+]c(C)c1,T/C,"dose: 100.0 mg/kg/injection, schedule: Q04DX003 (sc), vehicle: Klucel (hydroxypropylcellulose) (HPC)",87 % of control
same,T/C,"dose: 200.0 mg/kg/injection, schedule: Q04DX003 (sc), vehicle: Klucel (hydroxypropylcellulose) (HPC)",76 % of control
F[B-](F)(F)F,T/C,"dose: 300.0 mg/kg/injection, schedule: Q04DX003 (sc), vehicle: gum acacia",103 % of control
same,T/C,"dose: 600.0 mg/kg/injection, schedule: Q04DX003 (sc), vehicle: gum acacia",101 % of control
same,T/C,"dose: 1200.0 mg/kg/injection, schedule: Q04DX003 (sc), vehicle: gum acacia",84 % of control
O=C(O)CCCCCCCC(=O)O,T/C,"dose: 150.0 mg/kg/injection, schedule: Q04DX003 (sc), vehicle: distilled water + Tween-80",105 % of control
same,T/C,"dose: 300.0 mg/kg/injection, schedule: Q04DX003 (sc), vehicle: distilled water + Tween-80",79 % of control
same,T/C,"dose: 600.0 mg/kg/injection, schedule: Q04DX003 (sc), vehicle: distilled water + Tween-80",60 % of control
same,T/C,"dose: 1200.0 mg/kg/injection, schedule: Q04DX003 (sc), vehicle: distilled water + Tween-80",50 % of control
COC(=Nc1ccccc1)SSC(C)C,T/C,[4],120 % of control
same,T/C,[5],94 % of control
same,T/C,[6],107 % of control
COC1CC(C)C(OC)c2cc(O)cc(c2O)NC(=O)/C(C)=C/C=C\C(C)C(OC(N)=O)/C(C)=C\C(C)C1OC (centres undefined),T/C,[2],86 % of control
same,T/C,[3],93 % of control
same,T/C,"dose: 100.0 mg/kg/injection, schedule: Q04DX003 (sc), vehicle: saline + alcohol",82 % of control
Nc1n[nH]c(N)n1,T/C,"dose: 200.0 mg/kg/injection, schedule: Q01DX010 (sc), vehicle: saline",109 % of control
same,T/C,"dose: 400.0 mg/kg/injection, schedule: Q01DX010 (sc), vehicle: saline",106 % of control
same,T/C,"dose: 800.0 mg/kg/injection, schedule: Q01DX010 (sc), vehicle: saline",84 % of control
CCN(CC)c1ccc2cc(-c3nc4ccccc4n3C)c(=O)oc2c1,T/C,"dose: 75.0 mg/kg/injection, schedule: Q04DX003 (sc), vehicle: Klucel (hydroxypropylcellulose) (HPC)",105 % of control
same,T/C,"dose: 150.0 mg/kg/injection, schedule: Q04DX003 (sc), vehicle: Klucel (hydroxypropylcellulose) (HPC)",81 % of control
COc1cccc(C2NC(=O)c3c(n[nH]c3N)S2)c1O (centres undefined),T/C,[4],171 % of control
same,T/C,[5],77 % of control
same,T/C,[6],95 % of control
same,T/C,[1],162 % of control
CCCCCCCCCCS(=O)CC(CO)NC(=O)/C=C/c1c(C)[nH]c(=O)[nH]c1=O (centres undefined),T/C,"dose: 9.38 mg/kg/injection, schedule: Q04DX003 (sc), vehicle: distilled water + Tween-80",108 % of control
same,T/C,"dose: 18.75 mg/kg/injection, schedule: Q04DX003 (sc), vehicle: distilled water + Tween-80",124 % of control
